This is an account of results in US8541588B2, “Sulfonamide derivatives” (Pfizer Limited, priority 2009, dated 2013).

This assay concerns the target T1, Nav1.7 (or SCN9A) channel; HEK cells stably transfected with hSCN9A (Homo sapiens, UniProt Q15858).
T1 construct: expressed in transfected cells
The assay is described as follows: Nav1.7 block, PatchXpress 7000 automated whole-cell voltage clamp, estimated IC50 (EIC50). Type of assay: cell-based.

Where [1] appears, read: estimated IC50, hSCN9A HEK cells, PatchXpress platform, Examples 283-814.

Like-named read-outs stand apart in the source and are kept apart here.

Broadly, the IC50 is the midpoint of a concentration-inhibition curve.

T1 sequence (Q15858 whole entry): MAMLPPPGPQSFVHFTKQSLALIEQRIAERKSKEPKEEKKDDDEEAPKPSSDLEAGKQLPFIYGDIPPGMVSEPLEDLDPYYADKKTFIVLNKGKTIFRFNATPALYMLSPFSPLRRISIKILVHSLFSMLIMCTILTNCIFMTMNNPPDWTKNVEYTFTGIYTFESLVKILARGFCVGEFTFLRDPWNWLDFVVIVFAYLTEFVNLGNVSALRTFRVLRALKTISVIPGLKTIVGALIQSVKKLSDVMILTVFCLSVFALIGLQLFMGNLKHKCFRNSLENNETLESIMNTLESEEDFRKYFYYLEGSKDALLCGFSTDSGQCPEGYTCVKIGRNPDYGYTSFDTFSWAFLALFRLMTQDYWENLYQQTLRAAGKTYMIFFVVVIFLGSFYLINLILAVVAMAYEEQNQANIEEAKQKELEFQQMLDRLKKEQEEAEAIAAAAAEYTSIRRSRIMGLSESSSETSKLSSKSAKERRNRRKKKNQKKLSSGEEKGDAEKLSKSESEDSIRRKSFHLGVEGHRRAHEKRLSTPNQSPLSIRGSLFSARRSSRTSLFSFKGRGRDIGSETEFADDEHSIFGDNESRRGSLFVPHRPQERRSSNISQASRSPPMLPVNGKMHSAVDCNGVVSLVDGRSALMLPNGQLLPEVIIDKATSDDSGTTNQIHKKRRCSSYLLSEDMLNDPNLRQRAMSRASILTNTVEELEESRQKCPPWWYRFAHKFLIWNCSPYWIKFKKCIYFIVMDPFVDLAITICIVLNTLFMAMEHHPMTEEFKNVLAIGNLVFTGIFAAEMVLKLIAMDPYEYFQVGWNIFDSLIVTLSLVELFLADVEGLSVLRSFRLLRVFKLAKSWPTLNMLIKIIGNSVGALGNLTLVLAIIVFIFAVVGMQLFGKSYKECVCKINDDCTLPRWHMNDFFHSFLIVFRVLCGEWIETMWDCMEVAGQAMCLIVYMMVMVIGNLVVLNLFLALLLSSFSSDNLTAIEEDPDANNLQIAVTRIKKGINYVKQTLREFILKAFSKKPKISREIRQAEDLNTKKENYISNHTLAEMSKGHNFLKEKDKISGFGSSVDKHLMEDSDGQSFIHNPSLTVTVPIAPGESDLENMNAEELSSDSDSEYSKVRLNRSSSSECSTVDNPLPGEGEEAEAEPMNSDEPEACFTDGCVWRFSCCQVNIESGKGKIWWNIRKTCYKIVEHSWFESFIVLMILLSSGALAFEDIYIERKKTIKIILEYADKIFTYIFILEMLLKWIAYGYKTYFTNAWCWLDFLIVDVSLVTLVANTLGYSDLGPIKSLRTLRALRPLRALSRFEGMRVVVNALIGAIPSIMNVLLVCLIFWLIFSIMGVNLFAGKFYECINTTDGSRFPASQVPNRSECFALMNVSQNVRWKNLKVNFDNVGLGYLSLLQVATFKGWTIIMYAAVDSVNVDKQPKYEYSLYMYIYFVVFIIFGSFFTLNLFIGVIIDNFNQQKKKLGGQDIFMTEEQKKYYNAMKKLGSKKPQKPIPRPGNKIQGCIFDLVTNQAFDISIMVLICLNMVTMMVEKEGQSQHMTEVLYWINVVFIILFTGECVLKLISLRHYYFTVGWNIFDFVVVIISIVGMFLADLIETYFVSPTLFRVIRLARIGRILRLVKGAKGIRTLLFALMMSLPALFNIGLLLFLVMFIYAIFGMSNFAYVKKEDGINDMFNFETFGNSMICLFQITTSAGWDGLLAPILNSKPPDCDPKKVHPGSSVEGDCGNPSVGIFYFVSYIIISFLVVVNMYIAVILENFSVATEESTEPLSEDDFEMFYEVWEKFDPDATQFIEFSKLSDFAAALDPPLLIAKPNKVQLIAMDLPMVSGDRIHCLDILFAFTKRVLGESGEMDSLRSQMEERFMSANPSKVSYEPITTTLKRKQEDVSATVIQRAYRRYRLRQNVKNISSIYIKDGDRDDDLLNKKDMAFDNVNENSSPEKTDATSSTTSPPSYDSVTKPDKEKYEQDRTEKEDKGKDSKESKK

As for `Cn1nc(C(F)(F)F)cc1-c1ccc(Oc2ccc(S(=O)(=O)Nc3ncc(F)s3)cc2C#N)c(Cl)c1` [Example 720, 4-{2-chloro-4-[1-methyl-3-(trifluoromethyl)-1H-pyrazol-5-yl]phenoxy}-3-cyano-N-(5-fluoro-1,3-thiazol-2-yl)benzenesulfonamide], under setting [1], the IC50 is 56 nM.

For the molecule `Cn1nccc1-c1cc(C#N)ccc1Oc1ccc(S(=O)(=O)Nc2nccs2)cc1F` [Example 721, 4-[4-Cyano-2-(1-methyl-1H-pyrazol-5-yl)phenoxy]-3-fluoro-N-1,3-thiazol-2-ylbenzenesulfonamide], under setting [1], the IC50 is 160 nM.

With `O=S(=O)(Nc1nccs1)c1ccc(Oc2cc(Cl)ccc2-c2ccn[nH]2)c(F)c1` [Example 722, 4-[5-Chloro-2-(1H-pyrazol-5-yl)phenoxy]-3-fluoro-N-1,3-thiazol-2-ylbenzenesulfonamide], the IC50 under setting [1] was 140 nM.

As to `CC(C)Cc1ccc(Oc2ccc(S(=O)(=O)Nc3nccs3)cc2F)c(-c2ccnn2C)c1` [Example 723, 3-Fluoro-4-[4-isobutyl-2-(1-methyl-1H-pyrazol-5-yl)phenoxy]-N-1,3-thiazol-2-ylbenzenesulfonamide], under setting [1], the IC50 was 64 nM.

In the case of `O=S(=O)(Nc1ncns1)c1ccc(Oc2ccc(Cl)cc2-c2cn[nH]c2)c(Cl)c1` [Example 724, 3-chloro-4-[4-chloro-2-(1H-pyrazol-4-yl)phenoxy]-N-1,2,4-thiadiazol-5-ylbenzenesulfonamide], under setting [1], the IC50 is 1.7 nM.

For `CN1CCC(n2nccc2-c2cc(Cl)ccc2Oc2ccc(S(=O)(=O)Nc3ncns3)cc2C#N)CC1` [Example 725, 4-{4-chloro-2-[1-(1-methylpiperidin-4-yl)-1H-pyrazol-5-yl]phenoxy}-3-cyano-N-1,2,4-thiadiazol-5-ylbenzenesulfonamide], the IC50 under setting [1] was 20 nM.

`O=S(=O)(Nc1cscn1)c1cc(Cl)c(Oc2ccc(Cl)cc2-c2ccnn2C2CNC2)cc1F` [Example 726, 4-[2-(1-azetidin-3-yl-1H-pyrazol-5-yl)-4-chlorophenoxy]-5-chloro-2-fluoro-N-1,3-thiazol-4-ylbenzenesulfonamide]: under setting [1], the IC50 is 5.8 nM.

For the molecule `N#Cc1cc(S(=O)(=O)Nc2cscn2)ccc1Oc1ccc(C(F)(F)F)cc1-c1cnn(C2CNC2)c1` [Example 727, 4-[2-(1-azetidin-3-yl-1H-pyrazol-4-yl)-4-(trifluoromethyl)phenoxy]-3-cyano-N-1,3-thiazol-4-ylbenzenesulfonamide], the half-inhibitory concentration (IC50) under setting [1] was 1900 nM.

In the case of `N#Cc1cc(S(=O)(=O)Nc2ncns2)ccc1Oc1ccc(Cl)cc1-c1ccnn1C1CNC1` [Example 728, 4-[2-(1-azetidin-3-yl-1H-pyrazol-5-yl)-4-chlorophenoxy]-3-cyano-N-1,2,4-thiadiazol-5-ylbenzenesulfonamide], the IC50 under setting [1] is 4.8 nM.

Take `CN1CC(n2nccc2-c2cc(Cl)ccc2Oc2ccc(S(=O)(=O)Nc3cscn3)cc2C#N)C1` [Example 729, 4-{4-chloro-2-[1-(1-methylazetidin-3-yl)-1H-pyrazol-5-yl]phenoxy}-3-cyano-N-1,3-thiazol-4-ylbenzenesulfonamide]: the 50% inhibitory concentration (IC50) under setting [1] was 22 nM.

In the case of `CN1CC(n2nccc2-c2cc(Cl)ccc2Oc2cc(F)c(S(=O)(=O)Nc3cscn3)cc2Cl)C1` [Example 730, 5-chloro-4-{4-chloro-2-[1-(1-methylazetidin-3-yl)-1H-pyrazol-5-yl]phenoxy}-2-fluoro-N-1,3-thiazol-4-ylbenzenesulfonamide], the IC50 under setting [1] was 9.9 nM.

Regarding `Nc1cc(-c2cc(Cl)ccc2Oc2cc(F)c(S(=O)(=O)Nc3ncns3)cc2Cl)ccn1` [Example 732, 4-[2-(2-aminopyridin-4-yl)-4-chlorophenoxy]-5-chloro-2-fluoro-N-1,2,4-thiadiazol-5-ylbenzenesulfonamide], the IC50 under setting [1] was 3.5 nM.

With `O=S(=O)(Nc1ncns1)c1cc(F)c(Oc2ccc(C(F)(F)F)cc2C2=CCNCC2)cc1F` [Example 733, 2,5-difluoro-4-[2-(1,2,3,6-tetrahydropyridin-4-yl)-4-(trifluoromethyl)phenoxy]-N-1,2,4-thiadiazol-5-ylbenzenesulfonamide], the IC50 is 10 nM.

On to `CN1CCC(c2cc(Cl)ccc2Oc2cc(F)c(S(=O)(=O)Nc3ncns3)cc2F)CC1` [Example 734, 4-[4-chloro-2-(1-methylpiperidin-4-yl)phenoxy]-2,5-difluoro-N-1,2,4-thiadiazol-5-ylbenzenesulfonamide], for which the IC50 under setting [1] was 53 nM.

Consider `Cn1nccc1-c1cc(Br)ccc1Oc1ccc(S(=O)(=O)Nc2ncns2)cc1C(N)=O` [Example 735, 2-[4-bromo-2-(1-methyl-1H-pyrazol-5-yl)phenoxy]-5-[(1,2,4-thiadiazol-5-ylamino)sulfonyl]benzamide], for which the IC50 under setting [1] is 1000 nM.

`N#Cc1cc(S(=O)(=O)Nc2ncns2)ccc1Oc1ccc(Cl)cc1-c1ccnc(N2CCNCC2)c1` [Example 736, 4-[4-chloro-2-(2-piperazin-1-ylpyridin-4-yl)phenoxy]-3-cyano-N-1,2,4-thiadiazol-5-ylbenzenesulfonamide]: the IC50 under setting [1] was 2.7 nM.

On to `O=S(=O)(Nc1ncns1)c1ccc(Oc2ccc(Cl)cc2-c2cn[nH]c2)c(F)c1` [Example 737, 4-[4-chloro-2-(1H-pyrazol-4-yl)phenoxy]-3-fluoro-N-1,2,4-thiadiazol-5-ylbenzenesulfonamide], for which the IC50 under setting [1] was 17 nM.

For the molecule `O=S(=O)(Nc1ncns1)c1cc(F)c(Oc2ccc(Cl)cc2-c2cn[nH]c2)cc1F` [Example 738, 4-[4-chloro-2-(1H-pyrazol-4-yl)phenoxy]-2,5-difluoro-N-1,2,4-thiadiazol-5-ylbenzenesulfonamide], the half-inhibitory concentration (IC50) under setting [1] was 1.4 nM.

`Cn1nccc1-c1cc(Cl)ccc1Oc1ncc(S(=O)(=O)Nc2nccs2)cc1C#N` [Example 739, 6-[4-chloro-2-(1-methyl-1H-pyrazol-5-yl)phenoxy]-5-cyano-N-1,3-azol-2-ylpyridine-3-sulfonamide]: the IC50 under setting [1] was 150 nM.

With `CCn1nc(C(F)(F)F)cc1-c1ccc(Oc2ncc(S(=O)(=O)Nc3nccs3)cc2C#N)cc1` [Example 740, 5-cyano-6-{4-[1-ethyl-3-(trifluoromethyl)-1H-pyrazol-5-yl]phenoxy}-N-1,3-thiazol-2-ylpyridine-3-sulfonamide], the 50% inhibitory concentration (IC50) under setting [1] was 400 nM.

Regarding `N#Cc1cc(S(=O)(=O)Nc2ncns2)ccc1Oc1ccc(C(F)(F)F)cc1-c1ccn[nH]1` [Example 741, 3-cyano-4-[2-(1H-pyrazol-5-yl)-4-(trifluoromethyl)phenoxy]-N-1,2,4-thiadiazol-5-ylbenzenesulfonamide], the IC50 under setting [1] is 7.8 nM.

With `Nc1n[nH]cc1-c1cc(Cl)ccc1Oc1cc(F)c(S(=O)(=O)Nc2ncns2)cc1F` [Example 742, 4-[2-(3-amino-1H-pyrazol-4-yl)-4-chlorophenoxy]-2,5-difluoro-N-1,2,4-thiadiazol-5-ylbenzenesulfonamide], the IC50 under setting [1] was 3.6 nM.

Regarding `N#Cc1cc(S(=O)(=O)Nc2ncns2)ccc1Oc1ccc(Cl)cc1-c1ccnc(Cl)c1` [Example 743, 4-[4-chloro-2-(2-chloropyridin-4-yl)phenoxy]-3-cyano-N-1,2,4-thiadiazol-5-ylbenzenesulfonamide], the half-maximal inhibitory concentration (IC50) under setting [1] is 12 nM.

Take `O=S(=O)(Nc1ccncn1)c1ccc(Oc2ccc(Cl)cc2C2CCNCC2)c(Cl)c1` [Example 744, 3-chloro-4-(4-chloro-2-piperidin-4-ylphenoxy)-N-pyrimidin-4-ylbenzenesulfonamide]: the IC50 under setting [1] was 170 nM.

Consider `Cn1nccc1-c1cc(Cl)ccc1Oc1ccc(S(=O)(=O)Nc2ccc(F)cn2)cc1Cl` [Example 745, 3-chloro-4-[4-chloro-2-(1-methyl-1H-pyrazol-5-yl)phenoxy]-N-(5-fluoropyridin-2-yl)benzenesulfonamide], for which, under setting [1], the 50% inhibitory concentration (IC50) was 120 nM.

`O=S(=O)(Nc1ccncn1)c1ccc(Oc2ccc(Cl)cc2-c2ccn[nH]2)c(Cl)c1` [Example 746, 3-chloro-4-[4-chloro-2-(1H-pyrazol-5-yl)phenoxy]-N-pyrimidin-4-ylbenzenesulfonamide]: the IC50 under setting [1] was 95 nM.

With `O=S(=O)(Nc1nncs1)c1ccc(Oc2ccc(Cl)cc2-c2ccn[nH]2)c(Cl)c1` [Example 747, 3-chloro-4-[4-chloro-2-(1H-pyrazol-5-yl)phenoxy]-N-1,3,4-adiazol-2-ylbenzenesulfonamide], the IC50 under setting [1] was 50 nM.

As to `O=S(=O)(Nc1nncs1)c1cc(Cl)c(Oc2ccc(Cl)cc2-c2ccnn2CCO)cc1F` [Example 748, 5-chloro-4-{4-chloro-2-[1-(2-hydroxyethyl)-1H-pyrazol-5-yl]phenoxy}-2-fluoro-N-1,3,4-thiadiazol-2-ylbenzenesulfonamide], the half-maximal inhibitory concentration (IC50) under setting [1] was 170 nM.

On to `Cc1n[nH]cc1-c1cc(Cl)ccc1Oc1ccc(S(=O)(=O)Nc2nccs2)cc1F` [Example 749, 4-[4-chloro-2-(3-methyl-1H-pyrazol-4-yl)phenoxy]-3-fluoro-N-1,3-thiazol-2-ylbenzenesulfonamide], for which the IC50 under setting [1] was 45 nM.

In the case of `O=S(=O)(Nc1cscn1)c1cc(F)c(Oc2ccc(OC(F)(F)F)cc2-c2cn[nH]c2)cc1F` [Example 750, 2,5-difluoro-4-[2-(1H-pyrazol-4-yl)-4-(trifluoromethoxy)phenoxy]-N-1,3-thiazol-4-ylbenzenesulfonamide], under setting [1], the IC50 is 210 nM.

Regarding `N#Cc1cc(S(=O)(=O)Nc2ncns2)ccc1Oc1cc(Cl)c(F)cc1-c1ccn[nH]1` [Example 751, 4-[5-chloro-4-fluoro-2-(1H-pyrazol-5-yl)phenoxy]-3-cyano-N-1,2,4-thiadiazol-5-ylbenzenesulfonamide], the IC50 under setting [1] is 13 nM.

Take `O=S(=O)(Nc1ncns1)c1cc(F)c(Oc2cc(Cl)c(F)cc2-c2cn[nH]c2)cc1F` [Example 752, 4-[5-chloro-4-fluoro-2-(1H-pyrazol-4-yl)phenoxy]-2,5-difluoro-N-1,2,4-thiadiazol-5-ylbenzenesulfonamide]: the 50% inhibitory concentration (IC50) under setting [1] was 2.1 nM.

Take `O=S(=O)(Nc1ncns1)c1cc(F)c(Oc2cc(Cl)c(F)cc2-c2ccn[nH]2)cc1F` [Example 753, 4-[5-chloro-4-fluoro-2-(1H-pyrazol-5-yl)phenoxy]-2,5-difluoro-N-1,2,4-thiadiazol-5-ylbenzenesulfonamide]: the IC50 under setting [1] was 5.2 nM.
